From ChEMBL document CHEMBL4052759, “Discovery of DS79182026: A potent orally active hepcidin production inhibitor” (Bioorg Med Chem Lett, 2017)

Key:
[1] = target: T1, cGMP-dependent protein kinase 1 (Homo sapiens) (UniProt Q13976); assay: Inhibition of PKG-alpha (unknown origin) at 0.49 uM relative to control
T1 sequence (whole entry): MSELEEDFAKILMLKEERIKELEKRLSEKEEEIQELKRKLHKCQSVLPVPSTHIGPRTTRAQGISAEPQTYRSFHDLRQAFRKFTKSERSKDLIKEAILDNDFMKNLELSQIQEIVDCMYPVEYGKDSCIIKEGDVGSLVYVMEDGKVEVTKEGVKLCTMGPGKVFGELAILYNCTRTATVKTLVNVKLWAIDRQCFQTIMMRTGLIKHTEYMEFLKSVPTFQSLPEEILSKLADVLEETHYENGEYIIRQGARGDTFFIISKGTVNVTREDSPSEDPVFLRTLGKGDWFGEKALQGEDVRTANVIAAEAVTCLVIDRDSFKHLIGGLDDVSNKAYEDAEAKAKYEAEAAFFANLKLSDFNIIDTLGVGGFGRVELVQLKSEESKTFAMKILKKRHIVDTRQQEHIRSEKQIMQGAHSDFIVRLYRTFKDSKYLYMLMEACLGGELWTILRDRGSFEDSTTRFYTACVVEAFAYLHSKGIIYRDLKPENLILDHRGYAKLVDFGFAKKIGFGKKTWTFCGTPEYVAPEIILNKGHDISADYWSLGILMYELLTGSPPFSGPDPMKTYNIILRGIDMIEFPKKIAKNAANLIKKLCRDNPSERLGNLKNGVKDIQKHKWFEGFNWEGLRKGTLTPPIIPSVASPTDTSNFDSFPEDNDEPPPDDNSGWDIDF

[2] = tested on: Tyrosine-protein kinase ABL1 (Homo sapiens), P00519 [Y253F]; assay: Inhibition of ABL1 Y253F mutant (unknown origin) at 0.49 uM relative to control
[3] = target: Vascular endothelial growth factor receptor 1 (Homo sapiens) (UniProt P17948); assay: Inhibition of FLT1 (unknown origin) at 0.49 uM relative to control
[4] = target: Serine/threonine-protein kinase 10 (Homo sapiens) (UniProt O94804); assay: Inhibition of LOK (unknown origin) at 0.49 uM relative to control
[5] = target: Ephrin type-A receptor 3 (Homo sapiens) (UniProt P29320); assay: Inhibition of EPHA3 (unknown origin) at 0.49 uM relative to control
[6] = target: BDNF/NT-3 growth factors receptor (Homo sapiens) (UniProt Q16620); assay: Inhibition of NTRK2 (unknown origin) at 0.49 uM relative to control
[7] = target: Tyrosine-protein kinase Srms (Homo sapiens) (UniProt Q9H3Y6); assay: Inhibition of SRM (SRMS) (unknown origin) at 0.49 uM relative to control
[8] = target: Cyclin-dependent kinase 9 (Homo sapiens) (UniProt P50750); assay: Inhibition of CDK9 (unknown origin) at 0.49 uM relative to control
[9] = target: Protein kinase C eta type (Homo sapiens) (UniProt P24723); assay: Inhibition of PKC-eta (unknown origin) at 0.49 uM relative to control
[10] = target: Serine/threonine-protein kinase PAK 5 (Homo sapiens) (UniProt Q9P286); assay: Inhibition of PAK5 (unknown origin) at 0.49 uM relative to control
[11] = target: Dual specificity protein kinase CLK2 (Homo sapiens) (UniProt P49760); assay: Inhibition of CLK2 (unknown origin) at 0.49 uM relative to control
[12] = tested on: Fibroblast growth factor receptor 3 (Homo sapiens), P22607 [K650M]; assay: Inhibition of FGFR3 K650M mutant (unknown origin) at 0.49 uM relative to control
[13] = target: Ribosomal protein S6 kinase alpha-2 (Homo sapiens) (UniProt Q15349); assay: Inhibition of RSK3 (unknown origin) at 0.49 uM relative to control
[14] = tested on: MAP4K2 (Homo sapiens); assay: Inhibition of GCK (unknown origin) at 0.45 uM relative to control
[15] = target: Maternal embryonic leucine zipper kinase (Homo sapiens) (UniProt Q14680); assay: Inhibition of MELK (unknown origin) at 0.45 uM relative to control
[16] = tested on: Receptor-type tyrosine-protein kinase FLT3 (Homo sapiens), P36888 [D835Y]; assay: Inhibition of Flt3 D835Y mutant (unknown origin) at 0.45 uM relative to control
[17] = target: T1, cGMP-dependent protein kinase 1 (Homo sapiens); assay: Inhibition of PKG-alpha (unknown origin) at 0.45 uM relative to control
[18] = target: Serine/threonine-protein kinase PAK 5 (Homo sapiens) (UniProt Q9P286); assay: Inhibition of PAK5 (unknown origin) at 0.45 uM relative to control
[19] = target: Calcium/calmodulin-dependent protein kinase type II subunit gamma (Homo sapiens) (UniProt Q13555); assay: Inhibition of CaMK2-gamma (unknown origin) at 0.45 uM relative to control
[20] = target: Ephrin type-A receptor 2 (Homo sapiens) (UniProt P29317); assay: Inhibition of EPHA2 (unknown origin) at 0.45 uM relative to control
[21] = target: Ribosomal protein S6 kinase alpha-5 (Homo sapiens) (UniProt O75582); assay: Inhibition of MSK1 (unknown origin) at 0.45 uM relative to control
[22] = target: Casein kinase I isoform alpha (Homo sapiens) (UniProt P48729); assay: Inhibition of CSNK1A1 (unknown origin) at 0.45 uM relative to control
[23] = target: Serine/threonine-protein kinase pim-1 (Homo sapiens) (UniProt P11309); assay: Inhibition of PIM1 (unknown origin) at 0.45 uM relative to control
[24] = target: Protein kinase C alpha (Homo sapiens) (UniProt P17252); assay: Inhibition of PKC-alpha (unknown origin) at 0.45 uM relative to control
[25] = target: Proto-oncogene tyrosine-protein kinase ROS (Homo sapiens) (UniProt P08922); assay: Inhibition of ROS (unknown origin) at 0.45 uM relative to control
[26] = target: Rho-associated protein kinase 2 (Homo sapiens) (UniProt O75116); assay: Inhibition of ROCK2 (unknown origin) at 0.45 uM relative to control
[27] = target: Cyclin-dependent kinase 1/cyclin B1 (Homo sapiens) (UniProt P06493+P14635); assay: Inhibition of CDK1/Cycline B1 (unknown origin) at 0.45 uM relative to control; assay type: protein-complex assay
[28] = target: Glycogen synthase kinase-3 alpha (Homo sapiens) (UniProt P49840); assay: Inhibition of GSK3-alpha (unknown origin) at 0.45 uM relative to control
[29] = target: Serine/threonine-protein kinase 25 (Homo sapiens) (UniProt O00506); assay: Inhibition of YSK (unknown origin) at 0.45 uM relative to control
[30] = target: Insulin receptor (Homo sapiens) (UniProt P06213); assay: Inhibition of INSR (unknown origin) at 0.078 uM relative to control
[31] = target: Tyrosine-protein kinase BTK (Homo sapiens) (UniProt Q06187); assay: Inhibition of BTK (unknown origin) at 0.078 uM relative to control

## Cc1[nH]nc(C2CC2)c1-c1ccc2c(NC(=O)C3CC3)noc2c1
[1]
  inhibition: 0%
[2]
  inhibition: 24.3%
[3]
  inhibition: -2.3%
[4]
  inhibition: 9.7%
[5]
  inhibition: 0.7%
[6]
  inhibition: 4.3%
[7]
  inhibition: 2.3%
[8]
  inhibition: 2.3%
[9]
  inhibition: 7%
[10]
  inhibition: -1%
[11]
  inhibition: -0.7%
[12]
  inhibition: 6.3%
[13]
  inhibition: 2%

## Cc1n[nH]c(C)c1-c1ccc2c(NC(=O)c3ccc(N4CCN(C)CC4)cc3)n[nH]c2c1
[14]
  inhibition: 66%
[15]
  inhibition: 38%
[16]
  inhibition: 89%
[17]
  inhibition: -1.7%
[18]
  inhibition: 5.3%
[19]
  inhibition: 3%
[20]
  inhibition: 8%
[21]
  inhibition: 1.3%
[22]
  inhibition: 2.3%
[23]
  inhibition: 4%
[24]
  inhibition: 13.7%
[25]
  inhibition: 1.3%
[26]
  inhibition: 0.7%
[27]
  inhibition: 1.3%
[28]
  inhibition: -1%
[29]
  inhibition: 31%

## COC(=O)Nc1noc2cc(-c3c(-c4ccccn4)n[nH]c3C)ccc12
[30]
  inhibition: 1.7%
[31]
  inhibition: 7.7%
